Entries after “also recorded” stand apart in the source; their conditions may differ.
Assay: Photostability test in Q-Sun Xenon Test Chamber (accelerated photodegradation), LC/MSD quantitation
Assay type: physicochemical
Details: for percent Compound 2 remaining: 5 ppm; for effect of sorbate on photostability: 250 ppm potassium sorbate versus no photostabilizer; for effect of sorbate on photostability / rate of degradation, trend with pH: 10 ppm Compound 1 or 5 ppm Compound 2; for rate of degradation, trend with pH: no photostabilizer, pH 2.8, 4.0, 5.0, 7.1; for percent Compound 1 remaining: 10 ppm
Experimental: Aqueous buffer solution at pH 7.1 contains 50 mM potassium dihydogen phosphate and ˜32 mM sodium hydroxide (solutions of 1.0 M hydrochloric acid and 1.0 M sodium hydroxide are used to adjust pH). Aqueous buffer solution at pH 4.0 contains 50 mM citric acid monosodium salt and ˜7.4 mM sodium hydroxide (solutions of 1.0 M hydrochloric acid and 1.0 M sodium hydroxide are used to adjust pH). Aqueous buffer solution at pH 2.8 contains 50 mM citric acid and ˜16 mM sodium hydroxide (solutions of 1.0 M hydrochloric acid and 1.0 M sodium hydroxide are used to adjust pH). Aqueous buffer solution at pH 5.0 contains 50 mM acetic acid and ˜32 mM sodium hydroxide (solutions of 1.0 M hydrochloric acid and 1.0 M sodium hydroxide are used to adjust pH). All the buffers also contained 30 ppm ethylenediaminetetraacetic acid (EDTA).
The stock solutions of the test compounds at 10 mM for compound I and at 2000 ppm for compound II are made by dissolving the compounds in ethanol and water with 0.2% sodium bicarbonate, respectively. The solutions of the stabilizers are made by dissolving the materials in the aqueous buffers. The stock solutions are then diluted to 5 or 10 ppm with the stabilizer solutions to prepare the test solution and 10-mL aliquots of the solutions are transferred to 20-mL clear glass vial for testing.
Accelerated photodegradation was studied using a Q-Sun Xenon Test Chamber (Q-Lab Model No. Xe-1-SC) at an irradiance setting of 350 mW/m^2 at 340 nm and temperature of 25 degrees Celsius. To put this in perspective, 24 hours of constant Q-Sun irradiation at these settings is approximately equivalent to 12.4 days of direct sunlight in the southwestern United States. At 0, 1, 2, 4, 6 and 24 hours from the beginning of the radiation, a 0.4-mL aliquot from each vial is pippeted out to a 1-mL glass insert for analysis.
The samples are analyzed using an Agilent 1290 LC/MSD equipped with a diode-array detector (DAD). The peak areas from the MSD chromatograms are used for quantitation, and the photostability is shown by plotting the percentages of the test compound which remains intact at all time points. The peak areas from the DAD chromatograms are used for quantitation for stabilizers with concentration at […] or higher. The instrument conditions are listed below. • Column: Water Acquity HSS T3 C18 1.8 μm, 2.1×30 mm • Column Temperature: 30° C. • Auto-sampler Temperature: Room temperature • Mobile Phase A: 0.1% formic acid in water • Mobile Phase B: 0.1% formic acid in acetonitrile • Gradient: 0-1 min, linear gradient 5-50% B; 1.0-1.2 min, linear gradient 50-100% B; 1.2-2.0 min, 100% B; flow rate is 1.2 mL/min, and Post time is 0.5 min. • Injection volume: 10 uL • MSD ion source: APCI • MSD Signal settings: Positive, selected ion monitoring (SIM) at the mass of the expected molecular ions. • UV detection wavelength: 230 nm. • MSD detection start time: 0.65 min
(§1) A Q-Sun Xenon Test Chamber (Q-Lab Model No. Xe-1-SC), which reproduces the entire spectrum of natural sunlight, was used to study the photostability of Compound 1 in various mediums (with or without photostabilizers). The equivalent sunlight exposure time for 24 hours in the Q-Sun at a constant temperature of 25° C. and irradiance of 450 mW/m^2 @ 340 nm is estimated to be equivalent to approximately 15.9 days of direct sunlight in the Southwestern United States.
as §1, with “Compound 2” for “Compound 1”

[1] = 250 ppm potassium sorbate, pH 4.0, after 4 hours exposure
[2] = absence of photostabilizer, pH 7.1, after 4 hours exposure
[3] = absence of sorbate, pH 2.8, after 4 hours exposure
[4] = absence of sorbate, pH 4.0, after 4 hours exposure

| percentage of Compound 2 remaining (5 ppm Compound 2, no photostabilizer, all pH values (2.8, 4.0, 5.0, 7.1), after 4 hours light exposure, 25° C.) | percent Compound 2 remaining [1] | percent Compound 2 remaining (250 ppm potassium sorbate, pH 5.0, after 4 hours exposure) | percent Compound 2 remaining [2] | percent Compound 2 remaining [3] | percent Compound 2 remaining [4] | rate of degradation, trend with pH | percentage of Compound 1 remaining (10 ppm Compound 1, no photostabilizer, all pH values (2.8, 4.0, 5.0, 7.1), after 4 hours light exposure, 25° C.) | percent Compound 1 remaining [1] | percent Compound 1 remaining [2] | percent Compound 1 remaining [3] | percent Compound 1 remaining [4] | SMILES | effect of sorbate on photostability |
| --- | --- | --- | --- | --- | --- | --- | --- | --- | --- | --- | --- | --- | --- |
| less than 20% | about 42% | about 15% | no compound remained | about 15% | about 5% | decreases with decreasing pH |  |  |  |  |  | CC(C)CC(=O)N1CCC[C@H](COc2cccc3c2C(N)=NS(=O)(=O)N3)C1 [Compound 2, (S)-1-(3-(((4-amino-2,2-dioxido-1H-benzo[c][1,2,6]thiadiazin-5-yl)oxy)methyl)piperidin-1-yl)-3-methylbutan-1-one] | remarkably improved stability to photo-degradation; also recorded: significantly enhances the photostability |
|  |  |  |  |  |  | decreases with decreasing pH | less than 20% | about 47% | no compound remained | about 14% | about 10% | CCCNC(=O)C(C)(C)COc1cccc2c1C(N)=NS(=O)(=O)N2 [Compound 1, 3-(4-Amino-2,2-dioxide-1H-benzo[c][1,2,6]thiadiazin-5-yloxy)-2′,2′-dimethyl-N-propylpropanamide] | remarkably improved stability to photo-degradation; also recorded: significantly enhances the photostability |
